Counter-ions that a name gives are not always drawn.
What was measured:
Assay in all cases: Kinase selectivity panel
Assay type in all cases: biochemical
[1] = molecular target: Abl kinase (h) (Homo sapiens (Human), UniProt P00519); conditions: duplicate, read-out: % inhibition of control values, Abl kinase (h)
Description: (§1) (a) Compound 1 was tested against a panel of 60 kinases in order to assess its selectivity. The assays were chosen taking into consideration the diversity of assay families.
(§2) Human recombinant kinases were incubated in the presence of specific peptide substrates plus ATP for different times (10, 15, 30, 60 or 90 minutes) at 22° C. Phosphorylated substrate was detected by LANCE or HTRF technology (CISBIO, MA, USA).
(§3) Compound 1 was tested at 10 μM in duplicate.
(§4) The results are expressed as a percent of inhibition of control specific activity obtained in the presence of the test compound 1 and are reported in the following Table 5.
(§5) (b) Compounds 7, 12, 21 and 24 were tested against the same panel of 60 kinases under the same conditions described above for compound 1.
(§6) The results are expressed as a percent of inhibition of control specific activity obtained in the presence of the test compounds and are reported in the following Table 6.

[2] = molecular target: AurA/Aur2 kinase (h) (Homo sapiens (Human), UniProt O14965); conditions: duplicate, read-out: % inhibition of control values, AurA/Aur2 kinase (h)
Description: as §1, §2, §3, §4, §5, §6

[3] = molecular target: CK1alpha (h) (Homo sapiens (Human), UniProt P48729); conditions: duplicate, read-out: % inhibition of control values, CK1alpha (h)
Description: as §1, §2, §3, §4, §5, §6

[4] = molecular target: ERK1 (h) (Homo sapiens (Human), UniProt P27361); conditions: duplicate, read-out: % inhibition of control values, ERK1 (h)
Description: as §1, §2, §3, §4, §5, §6

[5] = molecular target: EphB2 kinase (h) (Homo sapiens (Human), UniProt P29323); conditions: duplicate, read-out: % inhibition of control values, EphB2 kinase (h)
Description: as §1, §2, §3, §4, §5, §6

[6] = molecular target: EphB4 kinase (h) (Homo sapiens (Human), UniProt P54760); conditions: duplicate, read-out: % inhibition of control values, EphB4 kinase (h)
EphB4 kinase (h), sequence (P54760 16-987): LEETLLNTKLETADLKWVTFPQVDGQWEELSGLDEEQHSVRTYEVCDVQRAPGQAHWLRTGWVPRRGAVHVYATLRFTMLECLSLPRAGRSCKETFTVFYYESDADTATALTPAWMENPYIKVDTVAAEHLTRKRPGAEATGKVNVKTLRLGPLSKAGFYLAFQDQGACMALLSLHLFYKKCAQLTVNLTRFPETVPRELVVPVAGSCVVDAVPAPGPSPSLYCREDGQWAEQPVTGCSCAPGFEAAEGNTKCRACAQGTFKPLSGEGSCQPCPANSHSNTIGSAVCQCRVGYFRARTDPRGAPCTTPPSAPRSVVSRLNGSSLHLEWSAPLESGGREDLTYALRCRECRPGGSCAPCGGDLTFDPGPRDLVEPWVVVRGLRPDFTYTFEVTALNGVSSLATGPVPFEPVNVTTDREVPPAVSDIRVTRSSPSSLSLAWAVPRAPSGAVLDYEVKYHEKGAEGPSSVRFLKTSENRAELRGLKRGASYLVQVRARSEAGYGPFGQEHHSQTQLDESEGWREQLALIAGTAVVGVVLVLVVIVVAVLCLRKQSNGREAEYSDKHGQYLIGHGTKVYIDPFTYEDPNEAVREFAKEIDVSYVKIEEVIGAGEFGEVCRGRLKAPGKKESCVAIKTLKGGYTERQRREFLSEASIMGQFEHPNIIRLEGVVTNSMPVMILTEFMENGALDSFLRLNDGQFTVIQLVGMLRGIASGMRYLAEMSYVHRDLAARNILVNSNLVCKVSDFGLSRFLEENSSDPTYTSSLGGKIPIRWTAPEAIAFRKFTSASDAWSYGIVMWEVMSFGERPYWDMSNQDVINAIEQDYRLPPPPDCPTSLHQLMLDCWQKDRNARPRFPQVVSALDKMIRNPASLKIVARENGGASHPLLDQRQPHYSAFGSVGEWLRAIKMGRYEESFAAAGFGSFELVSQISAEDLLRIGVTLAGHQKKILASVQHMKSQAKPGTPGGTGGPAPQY
Description: as §1, §2, §3, §4, §5, §6

[7] = molecular target: Fyn kinase (h) (Homo sapiens (Human), UniProt P06241); conditions: duplicate, read-out: % inhibition of control values, Fyn kinase (h)
Description: as §1, §2, §3, §4, §5, §6

[8] = molecular target: GRK3/BARK2 (h) (ADRBK2) (Homo sapiens (Human), UniProt P35626); conditions: duplicate, read-out: % inhibition of control values, GRK3/BARK2 (h) (ADRBK2)
Description: as §1, §2, §3, §4, §5, §6

[9] = molecular target: HGK (h) (MAP4K4) (Homo sapiens (Human), UniProt O95819); conditions: duplicate, read-out: % inhibition of control values, HGK (h) (MAP4K4)
Description: as §1, §2, §3, §4, §5, §6

[10] = molecular target: IKKalpha (h) (Homo sapiens (Human), UniProt O15111); conditions: duplicate, read-out: % inhibition of control values, IKKalpha (h)
Description: as §1, §2, §3, §4, §5, §6

[11] = molecular target: IRAK4 (h) (Homo sapiens (Human), UniProt Q9NWZ3); conditions: duplicate, read-out: % inhibition of control values, IRAK4 (h)
Description: as §1, §2, §3, §4, §5, §6

[12] = molecular target: JAK1 (h) (Homo sapiens (Human), UniProt P23458); conditions: duplicate, read-out: % inhibition of control values, JAK1 (h)
Description: as §1, §2, §3, §4, §5, §6

[13] = molecular target: MAPKAPK2 (h) (Homo sapiens (Human), UniProt P49137); conditions: duplicate, read-out: % inhibition of control values, MAPKAPK2 (h)
MAPKAPK2 (h), sequence (P49137 whole entry): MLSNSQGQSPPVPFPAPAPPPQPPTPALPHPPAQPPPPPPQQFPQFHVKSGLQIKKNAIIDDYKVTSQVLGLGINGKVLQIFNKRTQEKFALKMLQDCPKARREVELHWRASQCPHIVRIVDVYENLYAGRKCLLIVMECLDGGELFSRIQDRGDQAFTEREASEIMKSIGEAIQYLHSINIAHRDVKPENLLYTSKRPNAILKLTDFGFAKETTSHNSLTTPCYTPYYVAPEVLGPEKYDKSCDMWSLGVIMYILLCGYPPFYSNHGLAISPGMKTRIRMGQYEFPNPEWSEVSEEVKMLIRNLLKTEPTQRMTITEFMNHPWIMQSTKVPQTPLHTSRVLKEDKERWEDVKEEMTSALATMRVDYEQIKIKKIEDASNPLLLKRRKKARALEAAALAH
Description: as §1, §2, §3, §4, §5, §6

[14] = molecular target: MNK2 (h) (Homo sapiens (Human), UniProt Q9HBH9); conditions: duplicate, read-out: % inhibition of control values, MNK2 (h)
MNK2 (h), sequence (Q9HBH9 whole entry): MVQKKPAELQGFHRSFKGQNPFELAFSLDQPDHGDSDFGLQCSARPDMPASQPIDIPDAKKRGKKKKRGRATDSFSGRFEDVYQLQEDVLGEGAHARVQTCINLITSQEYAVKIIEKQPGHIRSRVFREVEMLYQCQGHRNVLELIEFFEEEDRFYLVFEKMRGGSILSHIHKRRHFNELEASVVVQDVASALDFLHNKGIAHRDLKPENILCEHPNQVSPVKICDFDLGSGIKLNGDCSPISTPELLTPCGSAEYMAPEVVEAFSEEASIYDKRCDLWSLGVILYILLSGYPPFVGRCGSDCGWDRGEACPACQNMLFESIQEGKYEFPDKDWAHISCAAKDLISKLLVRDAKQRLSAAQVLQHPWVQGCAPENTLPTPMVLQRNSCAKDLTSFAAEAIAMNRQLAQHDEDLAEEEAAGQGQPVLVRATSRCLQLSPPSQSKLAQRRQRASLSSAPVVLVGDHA
Description: as §1, §2, §3, §4, §5, §6

[15] = molecular target: MYT1 kinase (h) (Homo sapiens (Human), UniProt Q99640); conditions: duplicate, read-out: % inhibition of control values, MYT1 kinase (h)
Description: as §1, §2, §3, §4, §5, §6

[16] = molecular target: NEK7 (h) (Homo sapiens (Human), UniProt Q8TDX7); conditions: duplicate, read-out: % inhibition of control values, NEK7 (h)
NEK7 (h), sequence (Q8TDX7 whole entry): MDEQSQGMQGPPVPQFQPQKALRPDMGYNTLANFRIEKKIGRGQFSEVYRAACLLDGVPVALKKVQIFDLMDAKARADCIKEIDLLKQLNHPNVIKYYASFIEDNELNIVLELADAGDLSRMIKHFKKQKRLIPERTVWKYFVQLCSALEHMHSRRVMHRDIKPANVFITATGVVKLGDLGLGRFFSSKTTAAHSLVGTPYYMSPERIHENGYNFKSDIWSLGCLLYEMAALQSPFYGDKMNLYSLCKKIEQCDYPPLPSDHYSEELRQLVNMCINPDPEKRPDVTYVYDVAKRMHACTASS
Description: as §1, §2, §3, §4, §5, §6

[17] = molecular target: PKA (h) (Homo sapiens (Human), UniProt P17612); conditions: duplicate, read-out: % inhibition of control values, PKA (h)
Description: as §1, §2, §3, §4, §5, §6

[18] = molecular target: PKCalpha (h) (Homo sapiens (Human), UniProt P17252); conditions: duplicate, read-out: % inhibition of control values, PKCalpha (h)
Description: as §1, §2, §3, §4, §5, §6

[19] = molecular target: PKCbeta 1 (h) (Homo sapiens (Human), UniProt P05771); conditions: duplicate, read-out: % inhibition of control values, PKCbeta 1 (h)
Description: as §1, §2, §3, §4, §5, §6

[20] = molecular target: PKCgamma (h) (Homo sapiens (Human), UniProt P05129); conditions: duplicate, read-out: % inhibition of control values, PKCgamma (h)
Description: as §1, §2, §3, §4, §5, §6

[21] = molecular target: Pim1 kinase (h) (Homo sapiens (Human), UniProt P11309); conditions: duplicate, read-out: % inhibition of control values, Pim1 kinase (h)
Description: as §1, §2, §3, §4, §5, §6

[22] = molecular target: Pim2 kinase (h) (Homo sapiens (Human), UniProt Q9P1W9); conditions: duplicate, read-out: % inhibition of control values, Pim2 kinase (h)
Pim2 kinase (h), sequence (Q9P1W9 whole entry): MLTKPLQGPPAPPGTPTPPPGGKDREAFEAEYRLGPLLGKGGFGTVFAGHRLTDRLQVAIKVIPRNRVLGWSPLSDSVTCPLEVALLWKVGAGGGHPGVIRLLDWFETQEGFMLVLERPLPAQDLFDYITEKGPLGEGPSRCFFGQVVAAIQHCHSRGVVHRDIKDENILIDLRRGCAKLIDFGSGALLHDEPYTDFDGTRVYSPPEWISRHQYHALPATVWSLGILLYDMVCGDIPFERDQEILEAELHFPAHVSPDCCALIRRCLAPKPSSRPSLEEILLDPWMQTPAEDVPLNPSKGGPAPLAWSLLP
Description: as §1, §2, §3, §4, §5, §6

[23] = molecular target: Ret kinase (h) (Homo sapiens (Human), UniProt P07949); conditions: duplicate, read-out: % inhibition of control values, Ret kinase (h)
Description: as §1, §2, §3, §4, §5, §6

[24] = molecular target: Src kinase (h) (Homo sapiens (Human), UniProt P12931); conditions: duplicate, read-out: % inhibition of control values, Src kinase (h)
Description: as §1, §2, §3, §4, §5, §6

[25] = molecular target: c-Met kinase (h) (Homo sapiens (Human), UniProt P08581); conditions: duplicate, read-out: % inhibition of control values, c-Met kinase (h)
c-Met kinase (h), sequence (P08581 25-1390): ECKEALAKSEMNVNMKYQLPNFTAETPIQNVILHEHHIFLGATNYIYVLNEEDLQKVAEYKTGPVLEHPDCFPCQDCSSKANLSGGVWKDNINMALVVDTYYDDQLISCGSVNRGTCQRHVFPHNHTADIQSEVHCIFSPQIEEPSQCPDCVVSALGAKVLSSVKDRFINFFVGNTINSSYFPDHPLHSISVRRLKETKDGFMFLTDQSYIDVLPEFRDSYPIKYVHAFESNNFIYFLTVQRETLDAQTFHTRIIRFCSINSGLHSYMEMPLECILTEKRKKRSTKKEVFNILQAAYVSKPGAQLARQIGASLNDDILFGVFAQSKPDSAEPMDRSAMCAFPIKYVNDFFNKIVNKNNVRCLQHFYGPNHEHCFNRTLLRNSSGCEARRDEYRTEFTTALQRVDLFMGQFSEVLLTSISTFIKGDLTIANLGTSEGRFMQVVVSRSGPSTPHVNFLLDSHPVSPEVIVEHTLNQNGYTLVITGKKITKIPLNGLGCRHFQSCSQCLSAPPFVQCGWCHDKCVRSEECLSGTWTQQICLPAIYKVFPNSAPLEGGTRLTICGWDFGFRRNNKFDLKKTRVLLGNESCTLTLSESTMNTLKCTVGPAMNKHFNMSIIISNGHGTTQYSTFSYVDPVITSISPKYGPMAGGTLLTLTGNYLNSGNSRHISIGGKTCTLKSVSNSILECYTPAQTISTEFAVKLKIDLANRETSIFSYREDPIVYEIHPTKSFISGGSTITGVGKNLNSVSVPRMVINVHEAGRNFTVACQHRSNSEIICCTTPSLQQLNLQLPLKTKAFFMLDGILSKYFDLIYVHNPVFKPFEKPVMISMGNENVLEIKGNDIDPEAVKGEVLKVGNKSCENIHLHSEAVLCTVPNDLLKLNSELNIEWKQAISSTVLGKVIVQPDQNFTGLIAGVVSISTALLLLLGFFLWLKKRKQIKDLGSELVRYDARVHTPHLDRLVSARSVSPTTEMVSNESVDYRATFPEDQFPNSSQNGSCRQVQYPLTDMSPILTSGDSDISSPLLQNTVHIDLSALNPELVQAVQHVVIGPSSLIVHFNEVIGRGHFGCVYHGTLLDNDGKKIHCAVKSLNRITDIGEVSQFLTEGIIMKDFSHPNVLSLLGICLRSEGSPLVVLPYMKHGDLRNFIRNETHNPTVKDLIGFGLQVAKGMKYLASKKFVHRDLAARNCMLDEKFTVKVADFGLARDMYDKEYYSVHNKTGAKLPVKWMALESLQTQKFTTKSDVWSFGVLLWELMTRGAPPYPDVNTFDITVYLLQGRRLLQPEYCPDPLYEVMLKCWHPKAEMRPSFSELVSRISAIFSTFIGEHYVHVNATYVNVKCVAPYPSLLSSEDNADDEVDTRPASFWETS
Description: as §1, §2, §3, §4, §5, §6

Abl kinase (h), sequence (P00519 whole entry): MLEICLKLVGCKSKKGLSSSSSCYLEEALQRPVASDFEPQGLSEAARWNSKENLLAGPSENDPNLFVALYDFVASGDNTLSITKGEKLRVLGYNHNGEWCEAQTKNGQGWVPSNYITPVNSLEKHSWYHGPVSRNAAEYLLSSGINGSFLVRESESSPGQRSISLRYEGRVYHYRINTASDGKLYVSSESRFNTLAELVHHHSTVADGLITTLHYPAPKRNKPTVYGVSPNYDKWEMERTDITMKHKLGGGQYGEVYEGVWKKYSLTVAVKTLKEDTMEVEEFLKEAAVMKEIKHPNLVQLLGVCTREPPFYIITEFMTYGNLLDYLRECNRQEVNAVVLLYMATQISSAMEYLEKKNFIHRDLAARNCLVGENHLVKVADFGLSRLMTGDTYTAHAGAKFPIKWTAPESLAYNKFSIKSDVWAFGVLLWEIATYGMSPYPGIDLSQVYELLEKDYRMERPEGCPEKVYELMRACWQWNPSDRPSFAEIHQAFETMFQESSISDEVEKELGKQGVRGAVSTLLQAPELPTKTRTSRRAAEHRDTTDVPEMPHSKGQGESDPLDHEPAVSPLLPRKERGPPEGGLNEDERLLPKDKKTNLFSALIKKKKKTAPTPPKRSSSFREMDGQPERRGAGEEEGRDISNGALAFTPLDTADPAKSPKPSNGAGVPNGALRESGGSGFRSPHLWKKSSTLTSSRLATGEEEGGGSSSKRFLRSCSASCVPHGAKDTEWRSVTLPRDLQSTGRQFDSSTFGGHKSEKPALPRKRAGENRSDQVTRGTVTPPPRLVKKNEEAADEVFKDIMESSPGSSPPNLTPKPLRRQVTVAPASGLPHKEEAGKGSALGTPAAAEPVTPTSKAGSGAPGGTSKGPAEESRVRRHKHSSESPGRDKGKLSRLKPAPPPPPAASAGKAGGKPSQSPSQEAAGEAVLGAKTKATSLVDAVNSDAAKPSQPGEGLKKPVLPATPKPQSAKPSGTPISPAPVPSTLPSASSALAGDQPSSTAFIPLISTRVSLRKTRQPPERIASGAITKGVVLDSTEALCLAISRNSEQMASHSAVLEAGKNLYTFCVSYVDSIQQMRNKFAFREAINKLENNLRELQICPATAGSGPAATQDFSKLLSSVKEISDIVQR

| Structure (SMILES) | inhibition at 10 µM [1] | inhibition at 10 µM [2] | inhibition at 10 µM [3] | inhibition at 10 µM [4] | inhibition at 10 µM [5] | inhibition at 10 µM [6] | inhibition at 10 µM [7] | inhibition at 10 µM [8] | inhibition at 10 µM [9] | inhibition at 10 µM [10] | inhibition at 10 µM [11] | inhibition at 10 µM [12] | inhibition at 10 µM [13] | inhibition at 10 µM [14] | inhibition at 10 µM [15] | inhibition at 10 µM [16] | inhibition at 10 µM [17] | inhibition at 10 µM [18] | inhibition at 10 µM [19] | inhibition at 10 µM [20] | further results |
| --- | --- | --- | --- | --- | --- | --- | --- | --- | --- | --- | --- | --- | --- | --- | --- | --- | --- | --- | --- | --- | --- |
| COc1ccc2[nH]nc(C(=O)NCC3CCN(CCc4ccc(O)cc4)CC3)c2c1 [Compound 1, N-({1-[2-(4-hydroxyphenyl)ethyl]-piperidin-4-yl}methyl)-5-methoxy-1H-indazole-3-carboxamide] | 0% | 1% | 15% | 35% | 0% | 0% | 13% | 8% | 17% | 0% | 0% | 0% | 0% | 1% | 1% | 9% | 0% | 8% | 9% | 0% | inhibition at 10 µM [21]: 2%; inhibition at 10 µM [22]: 4%; inhibition at 10 µM [23]: 1%; inhibition at 10 µM [24]: 0%; inhibition at 10 µM [25]: 0% |
| COc1ccncc1-c1ccc2[nH]nc(C(=O)NCC3CCN(Cc4ccc(C(=O)O)o4)CC3)c2c1 [Compound 21, 5-({4-[({[5-(4-Methoxypyridin-3-yl)-1H-indazol-3-yl]carbonyl}amino)methyl]piperidin-1-yl}methyl)furan-2-carboxylic acid formate] | 0% | 30% | 2% | 81% | 2% | 3% | 10% | 4% | 99% | 5% | 18% | 10% | 0% | 6% | 0% | 5% | 3% | 20% | 0% | 0% | inhibition at 10 µM [21]: 10%; inhibition at 10 µM [22]: 5%; inhibition at 10 µM [23]: 0%; inhibition at 10 µM [24]: 0%; inhibition at 10 µM [25]: 0% |
| COc1ccc2[nH]nc(C(=O)NCC3CCN(Cc4ccc(C(=O)O)o4)CC3)c2c1 [Compound 24, 5-{[4-({[(5-Methoxy-1H-indazol-3-yl)carbonyl]amino}methyl)piperidin-1-yl]methyl}furan-2-carboxylic acid] | 0% | 4% | 0% | 22% | 0% | 0% | 3% | 0% | 19% | 2% | 1% | 1% | 0% | 0% | 0% | 3% | 0% | 0% | 0% | 0% | inhibition at 10 µM [21]: 2%; inhibition at 10 µM [22]: 3%; inhibition at 10 µM [23]: 0%; inhibition at 10 µM [24]: 0%; inhibition at 10 µM [25]: 2% |

— patent publication US9163013B2, “Use of 1H-indazole-3-carboxamide compounds as glycogen synthase kinase 3 beta inhibitors” (AZIENDE CHIMICHE RIUNITE ANGELINI FRANCESCO A.C.R.A.F. …, priority 2012, dated 2015)
